# Values of other authors in US8067464B2, “Compositions and methods using apocynin compounds and nitric oxide donors” (Nitromed, Inc., priority 2004, dated 2011).
smiles,measurement,setting,value
"O=[N+]([O-])O[C@H]1CO[C@H]2[C@@H]1OC[C@H]2O[N+](=O)[O-] [isosorbide dinitrate, 1,4,3,6-dianhydro-D-glucitol-2,5-dinitrate]",solubility in organic solvents,"organic solvents such as ethanol, ether and chloroform",freely soluble
same,solubility in water,water,sparingly soluble
